Reference: PubChem BioAssay (NCI)
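All cell lines were grown in 96-well plates and treated with compound for 48 hours. GI50 is the concentration that inhibits growth by half. TGI is the concentration that stops growth completely.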

What was measured:
Test in all cases: DTP human tumour cell line panel, 48 h
786-0 renal = system: 786-0 renal
COLO 205 colon = system: COLO 205 colon
LOX IMVI melanoma = system: LOX IMVI melanoma
BT-549 breast = system: BT-549 breast
M14 melanoma = system: M14 melanoma
EKVX NSCLC = system: EKVX NSCLC
A498 renal = system: A498 renal
HCT-116 colon = system: HCT-116 colon
SW-620 colon = system: SW-620 colon
UACC-62 melanoma = system: UACC-62 melanoma
SK-OV-3 ovarian = system: SK-OV-3 ovarian
HOP-92 NSCLC = system: HOP-92 NSCLC
KM12 colon = system: KM12 colon
PC-3 prostate = system: PC-3 prostate
HOP-62 NSCLC = system: HOP-62 NSCLC
MCF7 breast = system: MCF7 breast
RPMI-8226 leukemia = system: RPMI-8226 leukemia
MDA-MB-435 = system: MDA-MB-435
SK-MEL-5 melanoma = system: SK-MEL-5 melanoma
NCI-H460 lung = system: NCI-H460 lung
NCI-H226 lung = system: NCI-H226 lung
OVCAR-5 ovarian = system: OVCAR-5 ovarian
ACHN renal = system: ACHN renal
A549 NSCLC = system: A549 NSCLC
SF-295 CNS = system: SF-295 CNS
HT29 colon = system: HT29 colon
UACC-257 melanoma = system: UACC-257 melanoma
DU-145 prostate = system: DU-145 prostate
MOLT-4 leukemia = system: MOLT-4 leukemia
SF-539 CNS = system: SF-539 CNS
HCC-2998 colon = system: HCC-2998 colon
K-562 leukemia = system: K-562 leukemia
IGROV1 ovarian = system: IGROV1 ovarian
NCI-H23 lung = system: NCI-H23 lung
SNB-75 CNS = system: SNB-75 CNS
CAKI-1 renal = system: CAKI-1 renal
HCT-15 colon = system: HCT-15 colon
TK-10 renal = system: TK-10 renal
SN12C renal = system: SN12C renal
U251 CNS = system: U251 CNS
UO-31 renal = system: UO-31 renal
CCRF-CEM leukemia = system: CCRF-CEM leukemia
SNB-19 CNS = system: SNB-19 CNS
MALME-3M melanoma = system: MALME-3M melanoma
NCI/ADR-RES ovarian = system: NCI/ADR-RES ovarian
RXF 393 renal = system: RXF 393 renal
NCI-H522 lung = system: NCI-H522 lung
SF-268 CNS = system: SF-268 CNS
HS 578T breast = system: HS 578T breast
OVCAR-4 ovarian = system: OVCAR-4 ovarian

## N#Cc1c(NC(=O)c2ccc(F)c(Cl)c2)sc2c1CCC(=O)C2
786-0 renal
  GI50: 0.389 µM
  TGI: 5.78 µM
COLO 205 colon
  GI50: 0.423 µM
  TGI: 1.38 µM
LOX IMVI melanoma
  GI50: 0.404 µM
  TGI: 4.44 µM
BT-549 breast
  GI50: 0.223 µM
  TGI: 0.696 µM
M14 melanoma
  GI50: 0.365 µM
  TGI: 1.75 µM
EKVX NSCLC
  GI50: 1.06 µM
  TGI: 4.8 µM
A498 renal
  GI50: 2.4 µM
  TGI: 6.44 µM
HCT-116 colon
  GI50: 0.233 µM
  TGI: 1.11 µM
SW-620 colon
  GI50: 0.406 µM
  TGI: 1.87 µM
UACC-62 melanoma
  GI50: 0.426 µM
  TGI: 1.94 µM
SK-OV-3 ovarian
  GI50: 1.47 µM
  TGI: 3.03 µM
HOP-92 NSCLC
  GI50: 0.231 µM
  TGI: 0.724 µM
KM12 colon
  GI50: 0.419 µM
  TGI: 1.93 µM
PC-3 prostate
  GI50: 0.237 µM
  TGI: 1.35 µM
HOP-62 NSCLC
  GI50: 2.51 µM
  TGI: > 28.3 µM
MCF7 breast
  GI50: 0.337 µM
  TGI: 15 µM
RPMI-8226 leukemia
  GI50: 0.155 µM
  TGI: 0.684 µM
MDA-MB-435
  GI50: 0.436 µM
  TGI: 2.4 µM
SK-MEL-5 melanoma
  GI50: 1.23 µM
  TGI: 2.59 µM
NCI-H460 lung
  GI50: 1.94 µM
  TGI: > 33.3 µM
NCI-H226 lung
  GI50: 2.04 µM
  TGI: 6.25 µM
OVCAR-5 ovarian
  GI50: 0.728 µM
  TGI: 3.02 µM
ACHN renal
  GI50: 0.349 µM
  TGI: 1.08 µM
A549 NSCLC
  GI50: 2.64 µM
  TGI: > 29.2 µM
SF-295 CNS
  GI50: 1.12 µM
  TGI: 3.89 µM
HT29 colon
  GI50: 0.347 µM
  TGI: 1.31 µM
UACC-257 melanoma
  GI50: 1.52 µM
  TGI: 4.26 µM
DU-145 prostate
  GI50: 4.04 µM
  TGI: > 100 µM
MOLT-4 leukemia
  GI50: 0.332 µM
  TGI: > 26 µM
SF-539 CNS
  GI50: 0.312 µM
  TGI: 1.15 µM
HCC-2998 colon
  GI50: 1.32 µM
  TGI: 3.33 µM
K-562 leukemia
  GI50: 0.301 µM
  TGI: > 100 µM
IGROV1 ovarian
  GI50: 0.592 µM
  TGI: 2.38 µM
NCI-H23 lung
  GI50: 0.371 µM
  TGI: 2.08 µM
SNB-75 CNS
  GI50: 1.42 µM
  TGI: 4.21 µM
CAKI-1 renal
  GI50: 0.302 µM
  TGI: 1.13 µM
HCT-15 colon
  GI50: 0.368 µM
  TGI: 2.06 µM
TK-10 renal
  GI50: 0.44 µM
  TGI: 2.02 µM
SN12C renal
  GI50: 0.351 µM
  TGI: 1.56 µM
U251 CNS
  GI50: 0.353 µM
  TGI: 1.36 µM
UO-31 renal
  GI50: 0.298 µM
  TGI: 1.17 µM
CCRF-CEM leukemia
  GI50: 0.216 µM
  TGI: > 24.4 µM
SNB-19 CNS
  GI50: 0.672 µM
  TGI: 10.4 µM
MALME-3M melanoma
  GI50: 0.485 µM
  TGI: 1.69 µM
NCI/ADR-RES ovarian
  GI50: 0.449 µM
  TGI: > 100 µM
RXF 393 renal
  GI50: 0.353 µM
  TGI: 1.3 µM
NCI-H522 lung
  GI50: 0.2 µM
  TGI: 0.671 µM
SF-268 CNS
  GI50: 0.89 µM
  TGI: 6.36 µM
HS 578T breast
  GI50: 0.523 µM
  TGI: 3.76 µM
OVCAR-4 ovarian
  GI50: 0.578 µM
  TGI: 2 µM
